Source: patent US20130217678A1, “PHARMACEUTICAL AGENT COMPRISING QUINOLONE COMPOUND” (OTSUKA PHARMACEUTICAL CO., LTD., priority 2008, published 2013)

Compound | melting point [°C]
COCCN(C)c1ccc(C)c2c(=O)c(-c3ccc(OC)cc3)c[nH]c12.Cl | 90 to 93
CCCOc1cccc2c(=O)c(-c3cccc4ccccc34)c[nH]c12 | 255 to 256
CCCOc1cccc2c(=O)c(-c3ccc(OC)c(OC)c3)c[nH]c12 [Example 14, 3-(3,4-Dimethoxyphenyl)-8-propoxy-1H-quinolin-4-one] | 210 to 211
CCCOc1cccc2c(=O)c(-c3ccncc3)c[nH]c12 [Example 15, 8-Propoxy-3-pylidine-4-yl-1H-quinolin-4-one] | 259 to 260
CCCOc1cccc2c(=O)c(-c3ccc(OC)cc3OC)c[nH]c12 [Example 16, 3-(2,4-Dimethoxyphenyl)-8-propoxy-1H-quinolin-4-one] | 231 to 232
CCCOc1cccc2c(=O)c(-c3ccc(OC)cc3C)c[nH]c12 [Example 19, 3-(4-Methoxy-2-methylphenyl)-8-propoxy-1H-quinolin-4-one] | 214 to 215
CCCOc1ccc(-c2ccccc2)c2c(=O)c(-c3ccc(OC)cc3)c[nH]c12 [Example 22, 3-(4-Methoxyphenyl)-5-phenyl-8-propoxy-1H-quinolin-4-one] | 186 to 187
CCOc1ccc(OCC)c2c(=O)c(-c3ccc(OC)cc3)c[nH]c12 [Example 25, 5,8-Diethoxy-3-(4-methoxyphenyl)-1H-quinolin-4-one] | 182 to 183
CCCOc1cccc2c(=O)c(-c3ccc(Cl)cc3Cl)c[nH]c12 [Example 27, 3-(2,4-Dichlorophenyl)-8-propoxy-1H-quinolin-4-one] | 189
CCCOc1cccc2c(=O)c(-c3c(Cl)cccc3Cl)c[nH]c12 [Example 28, 3-(2,6-Dichlorophenyl)-8-propoxy-1H-quinolin-4-one] | 193
CCCOc1cccc2c(=O)c(-c3ccc(F)cc3Cl)c[nH]c12 [Example 29, 3-(2-Chloro-4-fluorophenyl)-8-propoxy-1H-quinolin-4-one] | 230
CCCOc1cccc2c(=O)c(-c3c(F)cccc3Cl)c[nH]c12 [Example 30, 3-(2-Chloro-6-fluorophenyl)-8-propoxy-1H-quinolin-4-one] | 250
CCCOc1cccc2c(=O)c(-c3cc(OC)ccc3OC)c[nH]c12 [Example 31, 3-(2,5-Dimethoxyphenyl)-8-propoxy-1H-quinolin-4-one] | 175
CCCOc1cccc2c(=O)c(-c3c(F)c(F)c(F)c(F)c3F)c[nH]c12 [Example 33, 3-Pentafluorophenyl-8-propoxy-1H-quinolin-4-one] | 160
CCOc1cc(NC(=O)c2ccccc2)c(OCC)c2c(=O)c(-c3ccc(OC)cc3)c[nH]c12 [Example 35, N-[5,8-Diethoxy-3-(4-methoxyphenyl)-4-oxo-1,4-dihydroquinolin-6-yl]-benzamide] | 120 to 121
CCCOc1cc(C)cc2c(=O)c(-c3ccc(OC)cc3)c[nH]c12 [Example 36, 3-(4-Methoxyphenyl)-6-methyl-8-propoxy-1H-quinolin-4-one] | 161 to 162
CCCOc1cccc2c(=O)c(-c3ccccc3OC)c[nH]c12 [Example 39, 3-(2-Methoxyphenyl)-8-propoxy-1H-quinolin-4-one] | 218 to 220
CCCOc1ccc(OC)c2c(=O)c(-c3ccccc3OC)c[nH]c12 [Example 40, 5-Methoxy-3-(2-methoxyphenyl)-8-propoxy-1H-quinolin-4-one] | 239 to 241

Compound | melting point [°C]
CCCOc1cccc2c(=O)c(-c3cccc(OC)c3OC)c[nH]c12 [Example 41, 3-(2,3-Dimethoxyphenyl)-8-propoxy-1H-quinolin-4-one] | 253 to 255
CCCOc1ccc(OC)c2c(=O)c(-c3cccc(OC)c3OC)c[nH]c12 [Example 42, 3-(2,3-Dimethoxyphenyl)-5-methoxy-8-propoxy-1H-quinolin-4-one] | 145 to 148
CCCOc1ccc(OC)c2c(=O)c(-c3cc(OC)ccc3OC)c[nH]c12 [Example 43, 3-(2,5-Dimethoxyphenyl)-5-methoxy-8-propoxy-1H-quinolin-4-one] | 179 to 180
CCOc1ccc(OC)c2c(=O)c(-c3ccc(OC)cc3)c[nH]c12 [Example 45, 8-Ethoxy-5-methoxy-3-(4-methoxyphenyl)-1H-quinolin-4-one] | 117 to 119
COc1ccc(-c2c[nH]c3c(OC(C)C)ccc(OC)c3c2=O)cc1 [Example 46, 8-Isopropoxy-5-methoxy-3-(4-methoxyphenyl)-1H-quinolin-4-one] | 213 to 214
COc1ccc(-c2c[nH]c3c(OCC(C)C)ccc(OC)c3c2=O)cc1 [Example 47, 8-Isobutoxy-5-methoxy-3-(4-methoxyphenyl)-1H-quinolin-4-one] | 242 to 244
CCCOc1c(F)ccc2c(=O)c(-c3ccc(OC)cc3)c[nH]c12 [Example 48, 7-Fluoro-3-(4-methoxyphenyl)-8-propoxy-1H-quinolin-4-one] | 160 to 161
CCCOc1ccc(CC)c2c(=O)c(-c3ccc(OC)cc3)c[nH]c12 [Example 49, 5-Ethyl-3-(4-methoxyphenyl)-8-propoxy-1H-quinolin-4-one] | 169 to 170
CCCOc1ccc(C)c2c(=O)c(-c3ccccc3C)c[nH]c12 [Example 50, 5-Methyl-8-propoxy-3-o-tolyl-1H-quinolin-4-one] | 201 to 202
CCCOc1ccc(C)c2c(=O)c(-c3ccccc3OC)c[nH]c12 [Example 52, 3-(2-Methoxyphenyl)-5-methyl-8-propoxy-1H-quinolin-4-one] | 221 to 223
CCCOc1ccc(C)c2c(=O)c(-c3cccc(OC)c3OC)c[nH]c12 [Example 53, 3-(2,3-Dimethoxyphenyl)-5-methyl-8-propoxy-1H-quinolin-4-one] | 170 to 171
CCCOc1cccc2c(=O)c(-c3ccccc3Br)c[nH]c12 [Example 54, 3-(2-Bromophenyl)-8-propoxy-1H-quinolin-4-one] | 200 to 203
CCCOc1cccc2c(=O)c(-c3cccc(Br)c3)c[nH]c12 [Example 55, 3-(3-Bromophenyl)-8-propoxy-1H-quinolin-4-one] | 107 to 108
CCCOc1cccc2c(=O)c(-c3cccc(-c4ccc(OC)cc4OC)c3)c[nH]c12 [Example 56, 3-(2′,4′-Dimethoxybiphenyl-3-yl)-8-propoxy-1H-quinolin-4-one] | 81 to 84
CCCOc1ccc(C)c2c(=O)c(-c3ccc(Cl)cc3Cl)c[nH]c12 [Example 57, 3-(2,4-Dichlorophenyl)-5-methyl-8-propoxy-1H-quinolin-4-one] | 103 to 106
CCCOc1cccc2c(=O)c(-c3cccc(-c4ccc(C)cc4)c3)c[nH]c12 [Example 59, 3-(4′-Methylbiphenyl-3-yl)-8-propoxy-1H-quinolin-4-one] | 189 to 193
CCCOc1ccc(C)c2c(=O)c(-c3cccs3)c[nH]c12 [Example 61, 5-Methyl-8-propoxy-3-thiophen-2-yl-1H-quinolin-4-one] | 104 to 105
CCCOc1ccc(C)c2c(=O)c(-c3cn(C)c4ccccc34)c[nH]c12 [Example 62, 5-Methyl-3-(1-methyl-1H-indol-3-yl)-8-propoxy-1H-quinolin-4-one] | 106 to 109
